Several values for one entry are separate records, joined by “and”; a condition that tells them apart may be missing. Identical values can stand only once. Marks after values point to notes of the source that are not given here. Square brackets hold non-standard residues; d marks the D form. Ends that are not written are not given here. Peptide text beside a SMILES is read from it.
Key:
[1] = Pharmacokinetic study of protegrin conjugates, single IV dose in rats; type: in vivo, Sprague-Dawley rats
Method: The weight range of the animals was 313-346 grams. All animals were food fasted overnight.
Following the last collection point, the animals were euthanized. Bioanalytical analysis: analysis of the plasma samples was conducted using non-validated LC-MS/MS methods.

[2] = biological target: T1, GPR54 G-Protein coupled receptor (Homo sapiens, UniProt Q969F8); assay: FLIPR calcium flux agonist assay on GPR54; type: cell-based; conditions: no release incubation
T1 construct: host or cells: Chem-1 host cells

[3] = Pharmacokinetic study of V681 (V13AD) conjugates, single IV dose in rats; type: in vivo, Sprague-Dawley rats; conditions: 1.0 mg/kg equivalent protein mass IV
Text: The weight range of the animals was 311-346 grams. All animals were food fasted overnight. […] The predose sample was collected from the JVC.
Following the last collection point, the animals were euthanized.

[4] = tested on: db/db diabetic mice; assay: Blood glucose levels in db/db diabetic mice after i.p. injection; type: in vivo
Method: At different time points after dosing blood glucose levels were measured.
PBS saline solution and Dextran equivalent dose were administrated as negative controls.

[5] = Pharmacokinetic study of BNP conjugates, single IV dose in rats; type: in vivo, Sprague-Dawley rats; conditions: for Cmax: test article in plasma (non-releasable PEG-BNP or native BNP)
Text: All animals were food fasted overnight.
Following the last collection point, the animals were euthanized. […]

[6] = test compound in plasma (non-releasable conjugates, native PG-1), […] equivalent protein mass IV, Mean ± SD
[7] = 0.459 mg/kg equivalent protein mass IV, rats
[8] = test article in plasma (non-releasable PEG-BNP), 0.459 mg/kg equivalent protein mass IV, rats
[9] = BNP in plasma (released from conjugate or given as native), 0.459 mg/kg equivalent protein mass IV, rats
[10] = intact C2-FMOC-PEG2-40K-BNP, IV bolus, rats
[11] = rat, in vivo, protegrin-1 in plasma (released or native), 1.6 mg/kg equivalent protein mass IV
[12] = protegrin-1 in plasma (released or native), […] equivalent protein mass IV

T1 sequence (Q969F8 whole entry): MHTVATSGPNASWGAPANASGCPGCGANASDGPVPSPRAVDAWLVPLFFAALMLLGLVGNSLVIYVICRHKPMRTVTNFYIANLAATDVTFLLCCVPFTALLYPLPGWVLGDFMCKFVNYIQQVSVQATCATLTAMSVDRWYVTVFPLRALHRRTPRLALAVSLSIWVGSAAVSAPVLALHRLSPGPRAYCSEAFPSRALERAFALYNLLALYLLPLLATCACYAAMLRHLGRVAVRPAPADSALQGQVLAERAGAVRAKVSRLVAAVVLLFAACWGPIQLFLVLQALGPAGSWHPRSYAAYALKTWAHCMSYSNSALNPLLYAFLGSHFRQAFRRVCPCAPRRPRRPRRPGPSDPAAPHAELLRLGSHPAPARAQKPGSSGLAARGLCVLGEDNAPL

## (PG-1)-(ALD)22K-(PG-1) (RGGRLCYCRRRFCVCVGR-NH2; cysteine pairing not given here; also: two peptide copies linked by PEG-dibutyraldehyde 2K; UniProt P32194 131-148, looked up) [PG-1-PEG-2K-PG-1, non-releasable di-peptide conjugate with bi-functional PEG-butyraldehyde-2K]
[1]; [6]
  CL: 3.48 ± 0.455 mL/min/kg
  T1/2: 438 ± 66 min
  Vss: 0.432 ± 0.0405 L/kg

## CC(C)C[C@H](NC(=O)CNC(=O)[C@H](Cc1ccccc1)NC(=O)[C@H](CO)NC(=O)[C@H](CC(N)=O)NC(=O)[C@H](Cc1c[nH]c2ccccc12)NC(=O)[C@H](CC(N)=O)NC(=O)[C@@H](N)Cc1ccc(O)cc1)C(=O)N[C@@H](CCCNC(=N)N)C(=O)N[C@@H](Cc1ccccc1)C(N)=O [KP10, Kisspeptin-10]
[2]; agonist activation at GPR54
  EC50: 0.01 to 0.014 µM and 0.01 µM
[2]
  Fold change compared to metastin: 1

## CC[C@H](C)[C@H](NC(=O)[C@H](C)NC(=O)[C@H](CCCCN)NC(=O)[C@H](CC(C)C)NC(=O)[C@H](C)NC(=O)[C@@H](NC(=O)[C@H](Cc1c[nH]cn1)NC(=O)[C@H](CC(C)C)NC(=O)[C@@H](NC(=O)[C@@H](NC(=O)[C@H](CCCCN)NC(=O)[C@@H](C)NC(=O)[C@H](C)NC(=O)[C@H](CO)NC(=O)[C@H](CCCCN)NC(=O)[C@H](Cc1ccccc1)NC(=O)[C@@H](NC(=O)[C@H](CCCCN)NC(=O)[C@H](CC(C)C)NC(=O)[C@H](Cc1ccccc1)NC(=O)[C@H](CO)NC(=O)[C@H](CCCCN)NC(=O)[C@H](Cc1c[nH]c2ccccc12)NC(=O)[C@H](CCCCN)NC(C)=O)[C@@H](C)O)[C@@H](C)O)C(C)C)[C@@H](C)O)C(=O)N[C@@H](CO)C(=O)N[C@@H](CO)C(N)=O [V681 (V13AD), V681(V13AD), reference compound] (Ac-KWKSFLKTFKSA[dA]KTVLHTALKAISS-NH2)
[3]
  AUCINF: 7210 ± 1430 ng·h/mL
  CL: 2.37 ± 0.433 mL/min/kg
  Cmax: 16500 ± 9670 ng/mL
  MRT: 19.8 ± 4.8 min
  T1/2: 36.6 ± 23.4 min
  Vss: 0.0477 ± 0.018 L/kg

## GTSLSPPPESSGSPQQPGLSAPHSRQIPAPQGAVLVQREKDLPNYNWNSFGLRF-NH2 [KP54, Kisspeptin-54]
[2]; agonist activation at GPR54
  EC50: 0.19 µM
[2]
  Fold change compared to metastin: 16

## dextran-butyrALD-40K-insulin [Dex-Ins]
[4]; Dex-Ins 250 ug/mouse i.p., time 0 hr, N = 4
  Blood glucose level, Mean: 495 mg/dL
[4]; Dex-Ins 250 ug/mouse i.p., time 1 hr, N = 4
  Blood glucose level, Mean: 263 mg/dL
[4]; Dex-Ins 250 ug/mouse i.p., time 2 hr, N = 4
  Blood glucose level, Mean: 192 mg/dL
[4]; Dex-Ins 250 ug/mouse i.p., time 4 hr, N = 4
  Blood glucose level, Mean: 462 mg/dL
[4]; Dex-Ins 250 ug/mouse i.p., time 8 hr, N = 4
  Blood glucose level, Mean: 494 mg/dL
[4]; Dex-Ins 250 ug/mouse i.p., time 24 hr, N = 4
  Blood glucose level, Mean: 517 mg/dL
[4]; at 1 hr and 2 hr after administration, 250 ug/mouse i.p.
  decrease of db/db mice glucose levels: 40-60%

## [mono]-[mPEG-ButyrALD-30K]-[Kisspeptin-13] (LPNYNWNSFGLRF; also: mono-PEGylated with mPEG-ButyrALD 30K, site not given here; UniProt Q15726 109-121, looked up) [Ald30K-KP13]
[2]; agonist activation at GPR54
  EC50 (nM): No activity

## [mono]-[mPEG2-Butyr-ALD-40K]-[BNP-32] [ButyrALD-40K-BNP]
[5]; [7]
  Cmax: 1410 ng/mL
[5]; [8]
  AUCINF: 41300 ng·h/mL
  CL: 0.185 mL/min/kg
  MRTlast: 1440 min
  T½: 1570 min
  Vss: 0.631 L/kg

## CC(C)C[C@H](NC(=O)CNC(=O)[C@H](Cc1ccccc1)NC(=O)[C@H](CO)NC(=O)[C@H](CC(N)=O)NC(=O)[C@H](Cc1c[nH]c2ccccc12)NC(=O)[C@H](CC(N)=O)NC(=O)[C@H](Cc1ccc(O)cc1)NC(=O)[C@H](CC(N)=O)NC(=O)[C@@H]1CCCN1C(=O)[C@@H](N)CC(C)C)C(=O)N[C@@H](CCCNC(=N)N)C(=O)N[C@@H](Cc1ccccc1)C(N)=O [KP13, Kisspeptin-13]
[2]; agonist activation at GPR54
  EC50: 0.011 µM
[2]
  Fold change compared to metastin: 1

## Insulin
[4]; Ins 5 ug/mouse, time 0 hr, N = 5
  Blood glucose level, Mean: 510 mg/dL
[4]; Ins 5 ug/mouse, time 1 hr, N = 5
  Blood glucose level, Mean: 265 mg/dL
[4]; Ins 5 ug/mouse, time 2 hr, N = 5
  Blood glucose level, Mean: 352 mg/dL
[4]; Ins 5 ug/mouse, time 4 hr, N = 5
  Blood glucose level, Mean: 587 mg/dL
[4]; Ins 5 ug/mouse, time 8 hr, N = 5
  Blood glucose level, Mean: 538 mg/dL
[4]; Ins 5 ug/mouse, time 24 hr, N = 5
  Blood glucose level, Mean: 538 mg/dL
[4]; Ins 50 ug/mouse, time 0 hr, N = 5
  Blood glucose level, Mean: 445 mg/dL
[4]; Ins 50 ug/mouse, time 1 hr, N = 5
  Blood glucose level, Mean: 210 mg/dL
[4]; Ins 50 ug/mouse, time 2 hr, N = 5
  Blood glucose level, Mean: 150 mg/dL
[4]; Ins 50 ug/mouse, time 4 hr, N = 5
  Blood glucose level, Mean: 550 mg/dL
[4]; Ins 50 ug/mouse, time 8 hr, N = 5
  Blood glucose level, Mean: 558 mg/dL
[4]; Ins 50 ug/mouse, time 24 hr, N = 5
  Blood glucose level, Mean: 541 mg/dL

## [mono]-[mPEG-Butyr-ALD-10K]-[BNP-32] [ButyrALD-10K-BNP]
[5]; [7]
  Cmax: 355 ng/mL
[5]; [8]
  AUCINF: 96.6 ng·h/mL
  CL: 79.17 mL/min/kg
  MRTlast: 22.1 min
  T½: 16.3 min
  Vss: 2.27 L/kg

## [mono]-[mPEG2-C2-fmoc-NHS-40K]-[BNP-32] [C2-FMOC-PEG2-40K-BNP]
[5]; [9]
  AUCINF: 162 ng·h/mL
  MRTlast: 110 min
[5]; BNP in plasma (released from conjugate or given as native), 0.459 mg/kg equivalent protein mass IV, rats, 0.459 mg/kg
  Tmax: 18 min and 19.8 min
[5]; following C2-FMOC-PEG2-40K-BNP IV dosing
  time released BNP stayed above 20 ng/mL: 8 h
[5]; [10]
  Peak concentration of the conjugate in plasma: 1300 ng/mL
  half-life of the conjugate in plasma: 900 min
  time plasma conjugate concentrations remained above 100 ng/mL: 24 h

## CC(C)C[C@H](NC(=O)[C@H](CCCNC(=N)N)NC(=O)CNC(=O)CNC(=O)[C@@H](N)CCCNC(=N)N)C(=O)N[C@H]1CSSC[C@@H](C(=O)N[C@H](C(=O)NCC(=O)N[C@@H](CCCNC(=N)N)C(N)=O)C(C)C)NC(=O)[C@H](C(C)C)NC(=O)[C@@H]2CSSC[C@H](NC(=O)[C@H](Cc3ccc(O)cc3)NC1=O)C(=O)N[C@@H](CCCNC(=N)N)C(=O)N[C@@H](CCCNC(=N)N)C(=O)N[C@@H](CCCNC(=N)N)C(=O)N[C@@H](Cc1ccccc1)C(=O)N2 [Protegrin-1, reference compound]
[1]; [11]
  AUC(0-inf): 1160 ± 351 ng·h/mL
  Cmax: 2050 ± 601 ng/mL
  MRT last: 31.2 ± 3 min
  half-life: 21 min
[1]; rat, in vivo, protegrin-1 in plasma (released or native), 1.6 mg/kg equivalent protein mass IV, read-out: Tmax
  Tmax: 1.8 min
[1]; rat, in vivo, test compound in plasma (non-releasable conjugates, native PG-1), 1.6 mg/kg equivalent protein mass IV, Mean ± SD
  clearance: 24.5 mL/min/kg
[1]; rat, in vivo, test compound in plasma (non-releasable conjugates, native PG-1), 1.6 mg/kg equivalent protein mass IV, Mean ± SD, read-out: Vss
  Vd: 0.848 ± 0.36 L/kg

## CC[C@H](C)[C@@H]1NC(=O)[C@H](CCCNC(=N)N)NC(=O)[C@H](CC(=O)O)NC(=O)[C@H](CCSC)NC(=O)[C@H](CCCCN)NC(=O)[C@H](CCCNC(=N)N)NC(=O)CNC(=O)[C@H](Cc2ccccc2)NC(=O)[C@@H](NC(=O)CNC(=O)[C@H](CO)NC(=O)CNC(=O)[C@H](CCC(N)=O)NC(=O)[C@@H](NC(=O)[C@H](CCSC)NC(=O)[C@H](CCCCN)NC(=O)[C@@H]2CCCN2C(=O)[C@@H](N)CO)C(C)C)CSSC[C@@H](C(=O)N[C@@H](CCCCN)C(=O)N[C@H](C(=O)N[C@@H](CC(C)C)C(=O)N[C@@H](CCCN=C(N)N)C(=O)N[C@@H](CCCN=C(N)N)C(=O)N[C@@H](Cc2cnc[nH]2)C(=O)O)C(C)C)NC(=O)CNC(=O)[C@H](CC(C)C)NC(=O)CNC(=O)[C@H](CO)NC(=O)[C@H](CO)NC(=O)[C@H](CO)NC(=O)[C@H](CO)NC1=O [BNP, Brain Natriuretic Peptide (BNP-32), reference compound]
[5]; male, Sprague-Dawley, rat, plasma, 0.03 hr after IV BNP administration, all animals, read-out: plasma concentration at first time point
  level at 0.03 h: < 20 ng/mL

## [mono]-[4,7-CG-PEG2-FMOC-NHS-40K]-[protegrin-1] (RGGRLCYCRRRFCVCVGR-NH2; cysteine pairing not given here; also: releasable CG-PEG2-FMOC 40K PEG, site not given here; UniProt P32194 131-148, looked up) [CG-PEG2-FMOC-40K-PG-1, releasable PEG conjugate of protegrin-1]
[1]; [12]
  T1/2 (hr): 1.95* hr
  Tmax: 1.8 min

## ALD40K-PG-1 (RGGRLCYCRRRFCVCVGR-NH2; cysteine pairing not given here; also: mPEG2-butyraldehyde 40K conjugate; UniProt P32194 131-148, looked up) [mPEG2-40K-PG-1, non-releasable conjugate of protegrin-1 with mPEG2-butaraldehyde-40K]
[1]; [6]
  CL: 0.548 ± 0.207 mL/min/kg
  T1/2: 648 ± 180 min
  Vss: 0.32 ± 0.131 L/kg

Source: patent US20110166063A1 (priority 2008, published 2011)
